Data on nine compounds can be found in patent publication US7414068B2, “Benzopyran derivatives substituted with secondary amines including tetrazole, method for the preparation thereof and pharmaceutical compositions containing them” (Dongbu Hannong Chemical Co., Ltd., priority 2002, dated 2008).

The test system of data set [1] is RAW 264.7 cells. Description: Inhibitory effect on NO production (LPS, Griess reagent). It counts as cell-based, murine. As to conditions: Mus musculus, RAW264.7, 24 h, Addition 30 μM, LPS 1 μg/ml, read-out: Inihibition (%) of NO production. On the procedure:
Using RPMI1640 media supplemented with 10% fetal bovine serum (FBS), RAW 264.7 cells (obtained from American Type Culture Collection), a murine macrophage cell line, were cultured at 37° C. in a 5% CO2 incubator. The RAW 264.7 cells were harvested and cell density was adjusted to 5×10^5 cell/ml with a RPMI media supplemented with 0.5% FBS and plated at 5×10^4 cell/well to 96-well plate, which were then cultured for 20 hours in a CO2 incubator. After removal of the media, the cells were pre-treated for 1 hour with fresh media containing 30 μM. The test compounds were dissolved in DMSO and diluted to respective concentration in the media. In order to minimize DMSO effect on the nitric oxide formation by the RAW 264.7 cells in the walls, the media were allowed to contain DMSO at a concentration of 0.1% or less.
After completion of one-hour pre-treatment, Lipopolysaccharide (E. coli serotype 055:B5) was added to activate the cells at a final concentration of 1 μg/ml, which were maintained for 24 hours in a CO2 incubator. As a result of the activation of RAW 264.7 cells with LPS, NO was formed. The NO release into the media was in a form of nitrite (NO2^−) and quantitatively measured using the Griess reagent. A control group was treated only with vehicle instead of test compounds.
The inhibitory effect of the test compounds against NO production were determined as the reduction of NO quantity compared with that of the control group.
Background: The Griess reaction detects nitrite, a stable product of nitric oxide.

A short description of data set [2]: Acute oral toxicity test in rats. As to conditions: SD, rat, in vivo, single oral dose, suspended in 0.5% methyl cellulose, read-out: lethal dose (LD50) for oral administration. In outline:
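Six-week-old SPF SD rats, two per group, received compounds orally as suspensions in 0.5% methyl cellulose. Endpoints were clinical signs, body weight, mortality, haematology, serum biochemistry and macroscopic necropsy of organs and tissues.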

The subject of data set [3] is cortical neuron cells. The data set can be described thus: Protective effect on iron-induced neuronal cell injury (LDH release). It counts as cell-based. The conditions noted are these: FeSO4 50 μM; for protective effect on neuron cell: Inhibition (%, 30 μM compound addition): LDH reduction vs control; for IC50: LDH. In short, it runs like this: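 Embryonic (day 17–18) cortical neurons cultured 7–9 days, serum lowered to 0.2%, pretreated 30 min with compound (DMSO ≤0.1%), then exposed to 50 μM FeSO4 for 24 h. LDH released to medium measured; protection expressed as LDH reduction versus vehicle control.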
(LDH in the medium is a marker of cell lysis.)

Data set [4] deals with brain homogenate. The data set can be described thus: Inhibitory effect against lipid peroxidation by iron (MDA quantification). It counts as biochemical, rat. As to conditions: 100 μM compound, FeCl2 400 μM, 37° C. 30 min. On the procedure:
The rat brain was homogenized in a Krebs buffer (15 mM HEPES, 10 mM glucose, 140 mM NaCl, 3.6 mM KCl, 1.5 mM CaCl2, 1.4 mM KH2PO4, 0.7 mM MgCl2, PH 7.4) and the supernatant separated by centrifugation at 12,000 rpm for 10 min was used for further experiments. FeCl2 was added for the final concentration to be 400 μM. Then the brain homogenate was allowed to stand at 37° C. for 30 min for the facilitation of oxidation. Each of the test compounds was added at a concentration of 100 μM. For control group, only vehicle was applied.
Iron facilitates the oxidation of the said brain homogenate to produce malondialdehyde (MDA), lipid peroxidation product. Thus, the lipid peroxidation was determined by MDA quantification. The inhibitory effect against lipid peroxidation of the test compounds was evaluated by calculating MDA reduction rate of the test compounds compared with that of the control group.
Typically, the MDA quantification is achieved by reacting samples with 2-thiobarbituric acid (TBA) and measuring the absorbance at 530 nm. However, this method is unsuitable to treat samples on a large scale because of a boiling step. Thus, in this experiment, N-methyl-2-phenylindole was used instead of TBA.

The subject of data set [5] is isolated ischemic rat heart. The data set can be described thus: Cardioprotective effect in ischemic heart models of rats (Langendorff). As to conditions: 10 μM; for EDP (mmHg): after 30 min global ischemia and reperfusion; for LDH (u/g): reperfusion LDH release; for LVDP X HR (%): reperfusion, % of pre-treatment DP; for TTC: time to contracture during global ischemia. On the procedure:
Male rats (300˜450 g, obtained form the experimental animal team of the Korea Research Institute of Chemical Technology) were anaesthetized by the intra-peritoneal injection of sodium pentobarbital at a dose of 100 mg/kg. Heparin (1,000 U/kg) was injected to the tail vein and then the heart was enucleated. Particularly, cannula (PE 240) was inserted to the organ. Rats were mechanically ventilated with a rodent ventilator, in situ aorta cannula was inserted into their aorta. In retorograde perfusion, their hearts were enucleated, then just hung onto Langendorff Apparatus. Tissue attached at the heart was removed. Heart was perfused in oxygenated modified Krebs-Henseleit bicarbonate buffer (composition<mM/L>116 NaCl, 4.7 KCl, 1.1 MgSO4, 1.17 KH2PO4, 24.9 NaHCO3, 2.52 CaCl2, 8.32 Glucose, 2.0 Pyruvate) at a constant perfusion pressure (85 mmHg). A metal cannula attached to latex balloon filled with solvent (ethanol: water=1:1 (v/v)) was placed in the left ventricle through pulmonary vein and connected to a isovolumetric pressure transducer (H.S.E., Germany) for measurement of left ventricular pressure (LVP). The hearts were allowed to equilibrate for 15 min, at which time left ventricular end-diastolic pressure (EDP) was adjusted to 5 mmHg and this balloon volume was maintained throughout the experiment.
Baseline cardiac contractile function, heart rate (HR), and coronary flow (CF) were measured. Cardiac contractile function was calculated by […], yielding LVDP (left ventricular developed pressure). Double product RPP (rate-pressure product) (DP), another important parameter for indirectly assessing cardiac performance in Langendorff heart impossible to measure cardiac output was calculated by multiplying HR by LVDP.
Throughout the experiment, total coronary blood flow was measured by the use of coronary flow probe (diameter: 1.0 mm) installed in aortic cannula with electromagnetic flowmeter. Temperature of heart was steadily maintained by immersing the heart at 37° C. in physiological saline solution to which 95% O2/5% CO2 was constantly supplied. After stabilization for 15 min, the hearts were pre-treated for 10 min in vehicle (0.04% DMSO) or mixture containing the compound of the present invention or control material. Thereafter, cardiac contractile function, HR and CF were repeatedly measured. Global ischemia was induced by completely shutting off the perfusate for 30 min. Severity of ischemia was determined as the time to contracture (TTC, min) during global ischemia in which the first 5 mmHg increase in EDP was observed. Then, the hearts were reperfused and, 30 min later, contractile functions (LVDP, HR and CF) was repeatedly measured. After reperfusion was accomplished for 30 min, LDH (lactate dehydrogenase) was measured as a sensitive index for loss of cell viability with a kit.

Data set [6] concerns isolated rat aorta. The data set can be described thus: Vasodilating effect on blood vessel excised from rats (methoxamine-constricted aorta). As to conditions: isolated rat aorta constricted with methoxamine (3 μM); read-out: Concentration for inhibition of constriction induced by methoxamine in rat arota (IC50). In outline:
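Endothelium-denuded rat thoracic aortic rings (3 mm) in Krebs-Henseleit buffer, 37 °C, carbogen, 2 g resting tension, primed twice with 10^−5 M phenylephrine. After maximal contraction with 3×10^−6 M methoxamine, compounds added cumulatively at 1, 3, 10, 30 μM. IC50 = concentration giving 50% relaxation of maximal constriction, by linear regression.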

SMILES strings stand for the structures.

Regarding `COC(OC)[C@@]1(C)Oc2ccc([N+](=O)[O-])cc2[C@H](N(Cc2nnn(C)n2)c2ccc(C)cc2C)[C@H]1O` [Example 45, (2S,3R,4S)-6-nitro-4-[N-(2,4-dimethylphenyl)-N-(2-methyl-2H-tetrazol-5-ylmethyl)amino]-3-hydroxy-2-methyl-2-dimethoxymethyl-3,4-dihydro-2H-1-benzopyran], the inhibition at 30 µM in data set [1] was over 75%.

Regarding `COC(OC)[C@@]1(C)Oc2ccc([N+](=O)[O-])cc2[C@H](N(Cc2nnn(C)n2)c2c(C)cccc2C)[C@H]1O` [Example 47, (2S,3R,4S)-6-nitro-4-[N-(2,6-dimethylphenyl)-N-(2-methyl-2H-tetrazol-5-ylmethyl)amino]-3-hydroxy-2-methyl-2-dimethoxymethyl-3,4-dihydro-2H-1-benzopyran], in data set [1], the inhibition at 30 µM amounted to 62%.

On to `COC(OC)[C@@]1(C)Oc2ccc([N+](=O)[O-])cc2[C@H](N(Cc2nnn(C)n2)c2ccccc2O)[C@H]1O` [Example 60, (2S,3R,4S)-6-nitro-4-[N-(2-hydroxyphenyl)-N-(2-methyl-2H-tetrazol-5-ylmethyl)amino]-3-hydroxy-2-methyl-2-dimethoxymethyl-3,4-dihydro-2H-1-benzopyran], for which, in data set [2], the LD50 is over 2000 mg/kg. Further, in data set [3] (24 hours), the “protective effect on neuron cell: Inhibition (%, 30 μM compound addition)” value is 87% and the IC50 came to 700 nM. In data set [3] (Cortical neurone, 24 h), this compound gave an IC50 of under 1000 nM. Besides, the “inhibitory effect against lipid peroxidation induced by iron (%, 100 μM)” value in data set [4] is listed as 85%. The inhibition at 30 µM in data set [1] was over 75%.

Turning to `COC(OC)[C@@]1(C)Oc2ccc([N+](=O)[O-])cc2[C@H](N(Cc2nnn(C)n2)c2ccccc2Cl)[C@H]1O` [Example 29, (2S,3R,4S)-6-nitro-4-[N-(2-chlorophenyl)-N-(2-methyl-2H-tetrazol-5-ylmethyl)amino]-3-hydroxy-2-methyl-2-dimethoxymethyl-3,4-dihydro-2H-1-benzopyran], in data set [1], the inhibition at 30 µM is over 75%.

With `COC(OC)[C@@]1(C)Oc2ccc([N+](=O)[O-])cc2[C@H](N(Cc2nnn(C)n2)c2ccccc2C(C)C)[C@H]1O` [Example 51, (2S,3R,4S)-6-nitro-4-[N-(2-isopropylphenyl)-N-(2-methyl-2H-tetrazol-5-ylmethyl)amino]-3-hydroxy-2-methyl-2-dimethoxymethyl-3,4-dihydro-2H-1-benzopyran], the inhibition at 30 µM in data set [1] was over 90%.

In the case of `COC(OC)[C@@]1(C)Oc2ccc([N+](=O)[O-])cc2[C@H](N(Cc2nnn(C)n2)c2cc(C)ccc2O)[C@H]1O` [Example 70, (2S,3R,4S)-6-nitro-4-[N-(2-hydroxy-5-methylphenyl)-N-(2-methyl-2H-tetrazol-5-ylmethyl)amino]-3-hydroxy-2-methyl-2-dimethoxymethyl-3,4-dihydro-2H-1-benzopyran], the LD50 in data set [2] is over 2000 mg/kg. Also, in data set [5], the “EDP (mmHg)” value was found to be 37.0 mmHg, the “LDH (u/g)” value amounted to 18.4 u/g, the “LVDP X HR (%)” value amounted to 31.9% and the “TTC” value was 22.0 min. In data set [3] (24 hours), the “protective effect on neuron cell: Inhibition (%, 30 μM compound addition)” value came out at 85% and the IC50 is 1400 nM. In data set [3] (Cortical neurone, 24 h), this compound came in with an IC50 of under 2000 nM. In data set [6], the IC50 was over 30000 nM. Moreover, in data set [1], the inhibition at 30 µM was over 75%.

Take `COC(=O)c1cccc(N(Cc2nnn(C)n2)[C@H]2c3cc([N+](=O)[O-])ccc3O[C@](C)(C(OC)OC)[C@@H]2O)c1` [Example 58, (2S,3R,4S)-6-nitro-4-[N-(3-methoxycarbonylphenyl)-N-(2-methyl-2H-tetrazol-5-ylmethyl)amino]-3-hydroxy-2-methyl-2-dimethoxymethyl-3,4-dihydro-2H-1-benzopyran]: in data set [1], the inhibition at 30 µM is over 75%.

As to `COC(OC)[C@@]1(C)Oc2ccc(N)cc2[C@H](N(Cc2nnn(C)n2)c2ccccc2O)[C@H]1O` [Example 61, (2S,3R,4S)-6-amino-4-[N-(2-hydroxyphenyl)-N-(2-methyl-2H-tetrazol-5-ylmethyl)amino]-3-hydroxy-2-methyl-2-dimethoxymethyl-3,4-dihydro-2H-1-benzopyran], the LD50 in data set [2] is over 2000 mg/kg. For the same compound, in data set [5], the “EDP (mmHg)” value worked out at 23.0 mmHg, the “LDH (u/g)” value was determined as 22.4 u/g, the “LVDP X HR (%)” value is given as 52.7% and the “TTC” value is recorded as 20.0 min. Moreover, in data set [3] (24 hours), the “protective effect on neuron cell: Inhibition (%, 30 μM compound addition)” value came to 89% and the IC50 turned out to be 1200 nM. This compound displayed an IC50 in data set [3] (Cortical neurone, 24 h) of under 2000 nM. Also, in data set [4], the “inhibitory effect against lipid peroxidation induced by iron (%, 100 μM)” value stood at 87%. For the same compound, the IC50 in data set [6] was over 30000 nM.

`COC(=O)c1ccc(C)c(N(Cc2nnn(C)n2)[C@H]2c3cc([N+](=O)[O-])ccc3O[C@](C)(C(OC)OC)[C@@H]2O)c1` [Example 68, (2S,3R,4S)-6-nitro-4-[N-(2-methyl-5-methoxycarbonylphenyl)-N-(2-methyl-2H-tetrazol-5-ylmethyl)amino]-3-hydroxy-2-methyl-2-dimethoxymethyl-3,4-dihydro-2H-1-benzopyran]: the inhibition at 30 µM in data set [1] was found to be 64%.
